Test results taken from ChEMBL document CHEMBL1201862, “PubChem BioAssay data set” (2004).
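Cultured in 96-well plates, cells were exposed to test compound for 48 hours across five concentrations. GI50 marks 50% less growth.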 Active and inactive are the calls of the source. Rule as the data show it: active = GI50 up to about 1.1 µM and inactive = higher.

Legend:
Experiment in all cases: NCI-60 cell line screen, 48 h
EKVX = test system: EKVX
COLO 205 = test system: COLO 205
SF-295 = test system: SF-295
DLD-1 = test system: DLD-1
SNB-78 = test system: SNB-78
SNB-19 = test system: SNB-19
HOP-18 = test system: HOP-18
RXF 393 = test system: RXF 393
UO-31 = test system: UO-31
HOP-62 = test system: HOP-62
M19-MEL = test system: M19-MEL
KM-20L2 = test system: KM-20L2
A498 = test system: A498
HCT-15 = test system: HCT-15
XF498 = test system: XF498
PC-3 = test system: PC-3
MDA-MB-231 = test system: MDA-MB-231
MDA-MB-435 = test system: MDA-MB-435
BT-549 = test system: BT-549
T47D = test system: T47D

Row | SMILES | GI50 (EKVX) | GI50 (COLO 205) | GI50 (SF-295) | GI50 (DLD-1) | GI50 (SNB-78) | GI50 (SNB-19) | GI50 (HOP-18) | GI50 (RXF 393) | GI50 (UO-31) | GI50 (HOP-62) | GI50 (M19-MEL) | GI50 (KM-20L2) | GI50 (A498) | GI50 (HCT-15) | GI50 (XF498) | GI50 (PC-3) | GI50 (MDA-MB-231) | GI50 (MDA-MB-435) | GI50 (BT-549) | GI50 (T47D)
1 | COc1ccc(-c2cc(O)c3cc(OC)ccc3n2)cc1 | > 100 µM (inactive) | > 100 µM (inactive) | > 100 µM (inactive) | > 100 µM (inactive) | > 100 µM (inactive) | > 100 µM (inactive) | > 100 µM (inactive) | > 100 µM (inactive) | > 100 µM (inactive) | > 100 µM (inactive) | > 100 µM (inactive) | > 100 µM (inactive) |  |  |  |  |  |  |  | 
2 | O=C1c2ccccc2C(=O)c2[nH]cnc21 | 91.2 µM (inactive) |  | 34.3 µM (inactive) | 27 µM (inactive) | 41.3 µM (inactive) | 46.7 µM (inactive) |  | > 100 µM (inactive) | > 100 µM (inactive) | > 100 µM (inactive) | 20.4 µM (inactive) |  | > 100 µM (inactive) | 48.5 µM | 32.7 µM (inactive) |  |  |  |  | 
3 | COC(=O)C(=O)C(C(=O)C(=O)Nc1ccc([N+](=O)[O-])cc1C#N)c1nc2ccc([N+](=O)[O-])cc2nc1O (stereo not drawn) | 35.6 µM (inactive) | > 100 µM (inactive) | > 100 µM (inactive) | > 100 µM (inactive) | > 100 µM (inactive) | > 100 µM (inactive) | 34.8 µM (inactive) | > 100 µM (inactive) | > 100 µM (inactive) | 94.2 µM (inactive) | > 100 µM (inactive) | > 100 µM (inactive) | 52.2 µM (inactive) | > 100 µM |  |  |  |  |  | 
4 | CC1=C(C(=O)CC(=O)C(=O)Nc2ccccc2C(F)(F)F)Sc2ccccc2N1 | 64.7 µM (inactive) | > 100 µM (inactive) | 47.4 µM (inactive) | 76 µM (inactive) | 47.3 µM (inactive) | 35.1 µM (inactive) |  | 15.8 µM (inactive) | 25.4 µM (inactive) | 33.9 µM (inactive) |  | > 100 µM (inactive) | > 100 µM (inactive) | 48.4 µM | 31.5 µM (inactive) |  |  |  |  | 
5 | Nc1nc(-c2ccco2)cc(-c2ccc(CO)o2)n1 | > 100 µM (inactive) | > 100 µM (inactive) | > 100 µM (inactive) |  | > 100 µM (inactive) | 65.5 µM (inactive) |  | > 100 µM (inactive) | 60.3 µM (inactive) | > 100 µM (inactive) | > 100 µM (inactive) | > 100 µM (inactive) |  | > 100 µM | > 100 µM (inactive) |  |  |  |  | 
6 | CCOC(=O)C1Cc2[nH]c3ccccc3c2C(C)C1C (stereo not drawn) | 10.8 µM (inactive) | 17.3 µM (inactive) | 19.4 µM (inactive) | 15.8 µM (inactive) | 19.4 µM (inactive) | 17.7 µM (inactive) |  |  | 12.8 µM (inactive) |  |  | 16.8 µM (inactive) | 17.4 µM (inactive) | 16.7 µM | 16.7 µM (inactive) |  |  |  |  | 
7 | CC1(C)C2C/C(=C\c3ccccc3)C(=O)C1C2 (stereo not drawn) | 86.9 µM (inactive) | > 100 µM (inactive) | > 100 µM (inactive) | 83.4 µM (inactive) | > 100 µM (inactive) | > 100 µM (inactive) |  | 27.6 µM (inactive) | 31.1 µM (inactive) | > 100 µM (inactive) | > 100 µM (inactive) |  | > 100 µM (inactive) | > 100 µM |  |  |  |  |  | 
8 | CC(=O)OC1c2ccccc2CCCCCCC12OCCO2 (stereo not drawn) |  | > 100 µM (inactive) | > 100 µM (inactive) | > 100 µM (inactive) | > 100 µM (inactive) | > 100 µM (inactive) | > 100 µM (inactive) | > 100 µM (inactive) | > 100 µM (inactive) | > 100 µM (inactive) |  | > 100 µM (inactive) | > 100 µM (inactive) | 68.1 µM |  |  |  |  |  | 
9 | COc1ccc(/N=C(/[N-]n2c(=O)c(C)nn(C)c2=S)N(c2ccc(OC)cc2)c2n[n+]3c(=O)c(C)nn(C)c3s2)cc1 | > 100 µM (inactive) | > 100 µM (inactive) | > 100 µM (inactive) | > 100 µM (inactive) | > 100 µM (inactive) | > 100 µM (inactive) | > 100 µM (inactive) | > 100 µM (inactive) |  | > 100 µM (inactive) | > 100 µM (inactive) | > 100 µM (inactive) | 93.3 µM (inactive) | > 100 µM |  |  |  |  |  | 
10 | CS(=O)(=O)N(CCC#N)c1ccc(/C=N/NC(=O)CC(=O)Nc2cccc(Cl)c2)cc1 | > 100 µM (inactive) | > 100 µM (inactive) | > 100 µM (inactive) | > 100 µM (inactive) | > 100 µM (inactive) | > 100 µM (inactive) | > 100 µM (inactive) | > 100 µM (inactive) | > 100 µM (inactive) | > 100 µM (inactive) | > 100 µM (inactive) | > 100 µM (inactive) | > 100 µM (inactive) | > 100 µM |  |  |  |  |  | 
11 | O=C1C[C@@H]2[C@@H](c3ccccc3)[C@@H]3C(=O)c4ccccc4NC(=O)[C@H]3[C@]2(O)c2ccccc2N1 | > 100 µM (inactive) | > 100 µM (inactive) | > 100 µM (inactive) |  | > 100 µM (inactive) | > 100 µM (inactive) |  | > 100 µM (inactive) | > 100 µM (inactive) | > 100 µM (inactive) | > 100 µM (inactive) | > 100 µM (inactive) |  | > 100 µM | > 100 µM (inactive) |  |  |  |  | 
12 | CC1CCc2c(sc3ncnc(N/N=C/c4ccc(Cl)c(Cl)c4)c23)C1 (stereo not drawn) | 25 µM (inactive) | 6.17 µM (inactive) | 11.4 µM (inactive) | 9.33 µM (inactive) |  | 17.5 µM (inactive) |  | 20.9 µM (inactive) | 12.2 µM (inactive) | 25.2 µM (inactive) | 19.8 µM (inactive) | 4.69 µM (inactive) |  | 9.73 µM |  |  |  |  |  | 
13 | O=C(C=C1SCCS1)/C=C\c1ccc(Cl)cc1 | > 100 µM (inactive) | > 100 µM (inactive) | > 100 µM (inactive) | > 100 µM (inactive) | > 100 µM (inactive) | > 100 µM (inactive) |  |  | > 100 µM (inactive) | > 100 µM (inactive) | > 100 µM (inactive) |  | > 100 µM (inactive) |  | 73.8 µM (inactive) |  |  |  |  | 
14 | CC(=O)O[C@H]1CCC2[C@@H]3CC[C@]4(C)CC(=O)C=C[C@]4(C)C3CC[C@@]21C (stereo partly drawn) | 27.5 µM (inactive) | 17.2 µM (inactive) | 53.3 µM (inactive) | 22.6 µM (inactive) | 14.9 µM (inactive) | 51.3 µM (inactive) | > 38.8 µM (inactive) | 24.2 µM (inactive) | 6.3 µM (inactive) | 50.6 µM (inactive) | 18.8 µM (inactive) | 19.4 µM (inactive) | 44.7 µM (inactive) | 18.7 µM |  | 29.4 µM (inactive) | 31.8 µM (inactive) | 40.6 µM (inactive) | 16.4 µM (inactive) | 
15 | COc1cc([C@@H]2c3cc4c(cc3[C@@H](NCc3ccccc3F)C3COC(=O)[C@@H]32)OCO4)cc(OC)c1O (stereo partly drawn) | 10.7 µM (inactive) | 17.7 µM (inactive) | 1.43 µM (inactive) | 11.9 µM (inactive) | 25.8 µM (inactive) | 5.36 µM (inactive) | > 100 µM (inactive) | 5.18 µM (inactive) | 4.05 µM (inactive) | 1.93 µM (inactive) | 3.47 µM (inactive) | 2.71 µM (inactive) | 5 µM (inactive) | 1.63 µM |  |  |  |  |  | 
16 | CO[C@]12CCC(=O)N1C=Cc1c2[nH]c2ccccc12 | > 100 µM (inactive) | > 100 µM (inactive) | > 100 µM (inactive) | > 100 µM (inactive) | > 100 µM (inactive) | > 100 µM (inactive) | > 100 µM (inactive) | > 100 µM (inactive) | > 100 µM (inactive) | > 100 µM (inactive) | > 100 µM (inactive) |  | > 100 µM (inactive) | > 100 µM |  |  |  |  |  | 
17 | CCCCCCCCCCCCCCCCOP(=O)(O)Oc1ccc(/C=C\c2ccc(OP(=O)(O)OCCCCCCCCCCCCCCCC)cc2)cc1 | > 100 µM (inactive) | 17.5 µM (inactive) | 29.6 µM (inactive) | > 100 µM (inactive) | 20.1 µM (inactive) | 64.1 µM (inactive) | 70.3 µM (inactive) | 2.47 µM (inactive) | > 100 µM (inactive) | 38.1 µM (inactive) | 38.7 µM (inactive) | 67.3 µM (inactive) | 83.9 µM (inactive) | > 100 µM |  |  |  |  |  | 
18 | COc1cc(C2c3cc4c(cc3[C@@H](NCCN3CCCCC3)C3COC(=O)[C@H]23)OCO4)cc(OC)c1O (stereo partly drawn) | 1.63 µM (inactive) | 0.782 µM (active) | 0.0986 µM (active) | 1.6 µM (inactive) | 2.7 µM (inactive) | 0.323 µM (active) | 0.509 µM (active) |  | 0.566 µM (active) | 0.0624 µM (active) | 1 µM (active) | 1.53 µM (inactive) | 0.237 µM (active) | 0.337 µM |  |  |  |  |  | 
19 | [N-]=[N+]=NC(CCl)c1cn([C@H]2C[C@H](O)[C@@H](CO)O2)c(=O)[nH]c1=O (stereo partly drawn) | > 100 µM (inactive) | > 100 µM (inactive) | > 100 µM (inactive) | > 100 µM (inactive) | > 100 µM (inactive) | > 100 µM (inactive) | > 100 µM (inactive) | > 100 µM (inactive) | > 100 µM (inactive) | > 100 µM (inactive) | > 100 µM (inactive) | > 100 µM (inactive) |  | > 100 µM |  |  |  |  |  | 
20 | CCCCCCCCCCCC/C=C\CC[C@@H](O)[C@H](O)CC[C@H](O)[C@@H]1CC[C@@H](CCCCCCCC2=C[C@H](C)OC2=O)O1 [GIGANTRIONENIN] | 2.97 µM (inactive) | 2.98 µM (inactive) | 1.93 µM (inactive) |  |  | 1.83 µM (inactive) |  | 19.4 µM (inactive) | 1.71 µM (inactive) | 4.1 µM (inactive) |  |  | 5.56 µM (inactive) | 3.85 µM |  | 2.75 µM (inactive) | 7.18 µM (inactive) | 0.883 µM (active) | 0.00819 µM (active) | 3.43 µM (inactive)
